Experimental data as given in patent US10059701B2 (Merck Patent GmbH, priority 2015, dated 2018).

What was measured:
IRAK1 = target: T1, IRAK1 (Homo sapiens, UniProt P51617); assay: IRAK1 enzymatic assay (ADP-Glo luminescence); type: biochemical; conditions: purified human recombinant His-TEV-IRAK1 (194-712)
T1 construct: His-TEV-IRAK1 (194-712); His (N); TEV cleavage site (N)
Experimental: IRAK1 is a human purified recombinant enzyme (His-TEV-IRAK1 (194-712))
In this assay, IRAK1 hydrolyses ATP and autophosphorylates. Measurement of IRAK-1 inhibition is performed in 384-well format based on luminescence assay (ADP-Glo™ Kinase Assay from Promega). Purified human recombinant IRAK1 (0.3 μg/ml) and serial diluted compounds in DMSO (range of concentration from 10 μM to 0.5 nM) or controls (1% DMSO) are incubated for 15 minutes at RT in assay buffer containing 50 mM Hepes pH 7.0, Fatty acid-free BSA 0.1%, Dithiothreitol (DTT) 2 mM, MgCl2 10 mM, EGTA 0.5 mM, Triton X-100 0.01%. The kinase reaction is then initiated by the addition of ATP […] After 2 hours of incubation at RT, the reaction is stopped and the unconsumed ATP depleted by the addition of ADP-Glo™ Reagent according to supplier instructions. After 40 minutes of incubation at RT, the Kinase Detection Reagent is then added to the assay plate according to supplier instructions. After 20 minutes of incubation at RT, the luminescence signal is measured with a luminometer (PerkinElmer Envision or equivalent reader).

IRAK4 = target: T2, IRAK4 (Homo sapiens, UniProt Q9NWZ3); assay: IRAK4 enzymatic assay (ADP-Glo luminescence); type: biochemical; conditions: purified human recombinant His-TEV-IRAK4 (1-460), ATP 2 μM
T2 construct: His-TEV-IRAK4 (1-460); His (N); TEV cleavage site (N)
T2 sequence (Q9NWZ3 1-460): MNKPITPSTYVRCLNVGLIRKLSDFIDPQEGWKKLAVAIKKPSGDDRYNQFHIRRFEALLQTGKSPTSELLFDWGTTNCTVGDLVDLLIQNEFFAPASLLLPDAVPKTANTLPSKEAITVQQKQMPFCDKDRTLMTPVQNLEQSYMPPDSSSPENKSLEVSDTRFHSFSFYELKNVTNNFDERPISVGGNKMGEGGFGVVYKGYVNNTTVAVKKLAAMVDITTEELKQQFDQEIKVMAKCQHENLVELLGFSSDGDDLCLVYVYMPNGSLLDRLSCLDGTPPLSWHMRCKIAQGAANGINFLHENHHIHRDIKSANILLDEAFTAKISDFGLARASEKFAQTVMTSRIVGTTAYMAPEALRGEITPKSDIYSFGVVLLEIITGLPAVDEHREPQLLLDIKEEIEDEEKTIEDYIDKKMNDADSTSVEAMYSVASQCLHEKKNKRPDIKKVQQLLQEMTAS
Experimental: IRAK4 is a human purified recombinant enzyme (His-TEV-IRAK4 (1-460)).
In this assay, IRAK4 hydrolyses ATP, autophosphorylates and phosphorylates a Serine/Threonine generic peptidic substrate (STK: 61ST1BLC from CisBio International). Measurement of IRAK-4 inhibition is performed in 384-well format based on a luminescence assay (ADP-Glo™ Kinase Assay from Promega). Purified human recombinant IRAK4 (0.3 μg/ml) and serial diluted compounds in DMSO (range of concentration from 10 μM to 0.5 nM) or controls (1% DMSO) are incubated for 15 minutes at RT in assay buffer containing 50 mM Hepes pH 7.0, Fatty acid-free BSA 0.1%, Dithiothreitol (DTT) 2 mM, MgCl2 10 mM, EGTA 0.5 mM, Triton X-100 0.01%, MnCl2 5 mM. The kinase reaction is then initiated by the addition of ATP (2 μM) and the peptidic substrate STK1-biotin peptide (300 nM). After 2 hours of incubation at RT, the reaction is stopped and the unconsumed ATP depleted by the addition of ADP-Glo™ Reagent according to supplier instructions. After 40 minutes of incubation at RT, the Kinase Detection Reagent is then added to the assay plate according to supplier instructions. After 20 minutes of incubation at RT, the luminescence signal is measured with a plate-reading luminometer (PerkinElmer Envision or equivalent reader).

T1 sequence (P51617 194-712): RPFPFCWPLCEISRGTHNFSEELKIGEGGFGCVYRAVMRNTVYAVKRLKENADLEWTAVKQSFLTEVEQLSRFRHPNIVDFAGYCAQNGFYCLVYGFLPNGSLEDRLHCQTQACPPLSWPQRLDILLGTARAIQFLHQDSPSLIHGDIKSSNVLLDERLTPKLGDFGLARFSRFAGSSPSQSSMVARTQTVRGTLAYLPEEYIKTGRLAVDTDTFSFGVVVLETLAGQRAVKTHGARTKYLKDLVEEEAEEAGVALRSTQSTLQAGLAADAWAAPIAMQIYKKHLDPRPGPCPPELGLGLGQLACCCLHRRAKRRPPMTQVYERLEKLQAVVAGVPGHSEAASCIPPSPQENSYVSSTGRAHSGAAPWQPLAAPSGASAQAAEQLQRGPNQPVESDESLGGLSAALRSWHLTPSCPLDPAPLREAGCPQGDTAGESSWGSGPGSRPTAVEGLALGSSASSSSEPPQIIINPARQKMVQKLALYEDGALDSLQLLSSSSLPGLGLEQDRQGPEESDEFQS

SMILES	IC50 (IRAK1) [nM]	IC50 (IRAK4) [nM]
O=C(/N=c1\[nH]c2cc(N3CCOCC3=O)ccc2n1[C@H]1CCCC[C@H]1CO)c1cccc(C(F)(F)F)c1 (racemic) [Compound 116, rac-(E)-N-(1-((1S,2R)-2-(hydroxymethyl)cyclohexyl)-5-(3-oxomorpholino)-1H-benzo[d]imidazol-2(3H)-ylidene)-3-(trifluoromethyl)benzamide]	> 1000	100 to 1000
O=C(/N=c1\[nH]c2cc(N3CCOCC3=O)ccc2n1[C@H]1CCCC[C@H]1CO)c1cccc(C(F)F)c1 (racemic) [Compound 117, rac-(E)-3-(difluoromethyl)-N-(1-((1S,2R)-2-(hydroxymethyl)cyclohexyl)-5-(3-oxomorpholino)-1H-benzo[d]imidazol-2(3H)-ylidene)benzamide]	100 to 1000	100 to 1000
O=C(/N=c1\[nH]c2cc(N3CCOCC3=O)ccc2n1[C@H]1CCCC[C@@H]1CO)c1cccc(C(F)(F)F)c1 (racemic) [Compound 118, rac-(E)-N-(1-((1S,2S)-2-(hydroxymethyl)cyclohexyl)-5-(3-oxomorpholino)-1H-benzo[d]imidazol-2(3H)-ylidene)-3-(trifluoromethyl)benzamide]	100 to 1000	≤ 100
O=C(/N=c1\[nH]c2cc(N3CCOCC3=O)ccc2n1[C@H]1CCCC[C@@H]1CO)c1cccc(C(F)F)c1 (racemic) [Compound 119, rac-(E)-3-(difluoromethyl)-N-(1-((1S,2S)-2-(hydroxymethyl)cyclohexyl)-5-(3-oxomorpholino)-1H-benzo[d]imidazol-2(3H)-ylidene)benzamide]	100 to 1000	≤ 100
CCC(CCO)n1/c(=N/C(=O)c2cccc(C(F)(F)F)c2)[nH]c2cc(N3CCOCC3=O)ccc21 (racemic) [Compound 124, rac-(E)-N-(1-(1-hydroxypentan-3-yl)-5-(3-oxomorpholino)-1H-benzo[d]imidazol-2(3H)-ylidene)-3-(trifluoromethyl)benzamide]	> 1000	100 to 1000
CCC(CCO)n1/c(=N/C(=O)c2cccc(C(F)F)c2)[nH]c2cc(N3CCOCC3=O)ccc21 (racemic) [Compound 125, rac-(E)-3-(difluoromethyl)-N-(1-(1-hydroxypentan-3-yl)-5-(3-oxomorpholino)-1H-benzo[d]imidazol-2(3H)-ylidene)benzamide]	> 1000	≤ 100
O=C(/N=c1\[nH]c2cc(N3CCCOC3=O)ccc2n1[C@@H]1C[C@H]1CO)c1cccc(C(F)(F)F)c1 (racemic) [Compound 144, rac-(E)-N-(1-((1R,2R)-2-(hydroxymethyl)cyclopropyl)-5-(2-oxo-1,3-oxazinan-3-yl)-1H-benzo[d]imidazol-2(3H)-ylidene)-3-(trifluoromethyl)benzamide]	> 1000	≤ 100
O=C(/N=c1\[nH]c2cc(N3CCCNC3=O)ccc2n1CCCO)c1cccc(C(F)(F)F)c1 [Compound 1, (E)-N-(1-(3-hydroxypropyl)-5-(2-oxotetrahydropyrimidin-1(2H)-yl)-1H-benzo[d]imidazol-2(3H)-ylidene)-3-(trifluoromethyl)benzamide]	100 to 1000	≤ 100
O=C(/N=c1\[nH]c2cc(N3CCOCC3=O)ccc2n1CCCO)c1cccc(-n2cnnc2)c1 [Compound 2, (E)-N-(1-(3-hydroxypropyl)-5-(3-oxomorpholino)-1H-benzo[d]imidazol-2(3H)-ylidene)-3-(4H-1,2,4-triazol-4-yl)benzamide]	100 to 1000	100 to 1000
N#Cc1cccc(C(=O)/N=c2\[nH]c3cc(N4CCOCC4=O)ccc3n2CCCO)c1 [Compound 3, (E)-3-cyano-N-(1-(3-hydroxypropyl)-5-(3-oxomorpholino)-1H-benzo[d]imidazol-2(3H)-ylidene)benzamide]	100 to 1000	≤ 100
O=C(/N=c1\[nH]c2cc(N3CCOCC3=O)ccc2n1CCCO)c1cccc(C(F)(F)F)c1F [Compound 4, (E)-2-fluoro-N-(1-(3-hydroxypropyl)-5-(3-oxomorpholino)-1H-benzo[d]imidazol-2(3H)-ylidene)-3-(trifluoromethyl)benzamide]	100 to 1000	≤ 100
O=C(/N=c1\[nH]c2cc(N3CCOCC3=O)ccc2n1CCCO)c1ccc(F)c(C(F)(F)F)c1 [Compound 5, (E)-4-fluoro-N-(1-(3-hydroxypropyl)-5-(3-oxomorpholino)-1H-benzo[d]imidazol-2(3H)-ylidene)-3-(trifluoromethyl)benzamide]	≤ 100	≤ 100
O=C(/N=c1\[nH]c2cc(N3CCOCC3=O)ccc2n1CCCO)c1cccc(OC(F)F)c1 [Compound 6, (E)-3-(difluoromethoxy)-N-(1-(3-hydroxypropyl)-5-(3-oxomorpholino)-1H-benzo[d]imidazol-2(3H)-ylidene)benzamide]	100 to 1000	≤ 100
O=C(/N=c1\[nH]c2cc(N3CCOCC3=O)ccc2n1CCCO)c1cccc(OC(F)(F)F)c1 [Compound 7, (E)-N-(1-(3-hydroxypropyl)-5-(3-oxomorpholino)-1H-benzo[d]imidazol-2(3H)-ylidene)-3-(trifluoromethoxy)benzamide]	100 to 1000	≤ 100
O=C(/N=c1\[nH]c2cc(N3CCOC3=O)ccc2n1CCCO)c1cccc(C(F)(F)F)c1 [Compound 8, (E)-N-(1-(3-hydroxypropyl)-5-(2-oxooxazolidin-3-yl)-1H-benzo[d]imidazol-2(3H)-ylidene)-3-(trifluoromethyl)benzamide]	100 to 1000	≤ 100
O=C(/N=c1\[nH]c2cc(N3CCOCC3=O)ccc2n1CC1(CO)CC1)c1cccc(C(F)(F)F)c1 [Compound 9, (E)-N-(1-((1-(hydroxymethyl)cyclopropyl)methyl)-5-(3-oxomorpholino)-1H-benzo[d]imidazol-2(3H)-ylidene)-3-(trifluoromethyl)benzamide]	100 to 1000	≤ 100
C[C@H](CCO)n1/c(=N/C(=O)c2cccc(C#N)c2)[nH]c2cc(N3CCOCC3=O)ccc21 [Compound 10, (R,E)-3-cyano-N-(1-(4-hydroxybutan-2-yl)-5-(3-oxomorpholino)-1H-benzo[d]imidazol-2(3H)-ylidene)benzamide]	100 to 1000	≤ 100
N#Cc1cccc(C(=O)/N=c2\[nH]c3cc(N4CCOC4=O)ccc3n2CCCO)c1 [Compound 11, (E)-3-cyano-N-(1-(3-hydroxypropyl)-5-(2-oxooxazolidin-3-yl)-1H-benzo[d]imidazol-2(3H)-ylidene)benzamide]	100 to 1000	≤ 100
N#Cc1cccc(C(=O)/N=c2\[nH]c3cc(N4CCOCC4=O)ccc3n2CC2(CO)CC2)c1 [Compound 12, (E)-3-cyano-N-(1-((1-(hydroxymethyl)cyclopropyl)methyl)-5-(3-oxomorpholino)-1H-benzo[d]imidazol-2(3H)-ylidene)benzamide]	≤ 100	≤ 100
CS(=O)(=O)c1cccc(C(=O)/N=c2\[nH]c3cc(N4CCOCC4=O)ccc3n2CC2(CO)CC2)c1 [Compound 13, (E)-N-(1-((1-(hydroxymethyl)cyclopropyl)methyl)-5-(3-oxomorpholino)-1H-benzo[d]imidazol-2(3H)-ylidene)-3-(methylsulfonyl)benzamide]	≤ 100	≤ 100
